Data reported in publication PMC11111408, “Concurrent inhibition of oncogenic and wild-type RAS-GTP for cancer therapy” (Nature, 2024).
“And” between values parts separate entries of the source, which are not always exact repeats. Equal entries are not always repeated.

Legend:
Format in all cases: cell-based
KRAS–SOS1 = molecular target: T1, KRAS–SOS1 (Homo sapiens, UniProt P01116+); experiment: Cellular nano-BRET, catalytic domain of SOS1 binding to KRAS; details: in the presence of CYPA, single replicates;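 note: U2OS cells expressing partner proteins fused at the N-terminus to nanoluciferase or HaloTag, nano-BRET signal read after inhibitor exposure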
T1 construct: expressed in transfected cells; host or cells: U2OS

[1] = test system: Capan-1, SW620, AsPC-1, HPAC, NCI-H358, PSN1, HUPT3, HCT 116, Hs 766T, SK-MEL-30, KU1919, NCI-H1975, A375; experiment: Proliferation (CTG) in human cancer cell lines
Protocol: Data points show biological duplicates normalized to vehicle control. […] Data points show biological duplicates normalized to vehicle control from 1 of 2–26 independent experiments. Source Data
Alternatively, cells were seeded in round-bottom ultra-low attachment 96-well plates, centrifuged at 1,000 rpm for 10 min to pellet the cells, and incubated overnight or up to 72 h to allow for 3D spheroid formation. […] Cell viability was determined by CellTiter-Glo 2.0 reagent (2D CTG) (Promega, G9243) or 3D CellTiter-Glo reagent (3D CTG) (Promega, G9683) according to the manufacturer’s protocols. Luminescence was detected using a SpectraMax M5 Plate Reader (Molecular Devices) of Perkin Elmer Enspire. Luminescence signal was normalized to vehicle-treated wells (normalized signal (%) = (luminescence (treated)/mean luminescence (vehicle)) × 100%). […] Data were plotted as log [inhibitor (M)], and a four-parameter sigmoidal concentration response model was fitted to the data to calculate EC50. […] Pa16C MEK1 mutant cells were evaluated by live-cell counting using Calcein AM and a SpectraMax i3X multi-mode detection platform (Molecular Devices). Growth percentages were calculated by normalizing the treated cell counts to their respective untreated cell counts.

[2] = molecular target: T2, MRAS and other RAS family small GTPase proteins (Homo sapiens, UniProt P62070, G23V); experiment: Cellular BRET between CYPA and small GTPases (RIT1, MRAS, RRAS, RRAS2, Rheb); details: RRAS2 G23V, single replicates
T2 construct: expressed in transfected cells; host or cells: U2OS PPIA-KO
T2 sequence (P62070 1-204 G23V): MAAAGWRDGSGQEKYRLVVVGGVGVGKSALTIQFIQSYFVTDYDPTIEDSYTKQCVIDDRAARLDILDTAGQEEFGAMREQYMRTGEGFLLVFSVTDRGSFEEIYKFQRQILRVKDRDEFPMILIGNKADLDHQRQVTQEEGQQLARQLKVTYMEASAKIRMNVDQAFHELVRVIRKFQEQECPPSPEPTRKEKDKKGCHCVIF

[3] = molecular target: T3, MRAS and other RAS family small GTPase proteins (Homo sapiens, UniProt O14807, Q71R); experiment: as above; details: MRAS Q71R, single replicates
T3 construct: expressed in transfected cells; host or cells: U2OS PPIA-KO
T3 sequence (O14807 1-208 Q71R): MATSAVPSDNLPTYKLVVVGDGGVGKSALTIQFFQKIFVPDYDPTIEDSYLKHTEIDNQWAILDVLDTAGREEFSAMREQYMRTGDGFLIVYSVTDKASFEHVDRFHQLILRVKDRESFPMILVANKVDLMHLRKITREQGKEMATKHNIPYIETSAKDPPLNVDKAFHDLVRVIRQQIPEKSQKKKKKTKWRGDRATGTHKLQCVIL

SMILES: CCn1c(-c2cc(N3CCN(C4CC4)CC3)cnc2[C@H](C)OC)c2c3cc(ccc31)-c1csc(n1)C[C@H](NC(=O)[C@H]1[C@@H]3COC[C@@H]31)C(=O)N1CCC[C@H](N1)C(=O)OCC(C)(C)C2 [RMC-7977]
- Cellular nano-BRET of SOS1 (catalytic domain) binding to KRAS WT (KRAS–SOS1; RMC-7977 0.152 nM): 8.563 and 8.127 and 7.755 and 7.611 and 8.1239 and 8.058
- Cellular nano-BRET of SOS1 (catalytic domain) binding to KRAS WT (KRAS–SOS1; RMC-7977 0.457 nM): 8.149 and 7.736 and 7.651 and 7.24 and 7.671 and 7.508
- Cellular nano-BRET of SOS1 (catalytic domain) binding to KRAS WT (KRAS–SOS1; RMC-7977 1.372 nM): 7.907 and 7.747 and 7.493 and 7.384 and 7.007 and 7.17
- Cellular nano-BRET of SOS1 (catalytic domain) binding to KRAS WT (KRAS–SOS1; RMC-7977 4.115 nM): 6.922 and 7.229 and 6.471 and 6.374 and 6.52 and 6.661
- Cellular nano-BRET of SOS1 (catalytic domain) binding to KRAS WT (KRAS–SOS1; RMC-7977 12.346 nM): 6.508 and 6.709 and 6.01 and 5.988 and 6.2252 and 6.045
- Cellular nano-BRET of SOS1 (catalytic domain) binding to KRAS WT (KRAS–SOS1; RMC-7977 37.037 nM): 7.064 and 6.964 and 6.2728 and 5.9257 and 6.205 and 6.027
- Cellular nano-BRET of SOS1 (catalytic domain) binding to KRAS WT (KRAS–SOS1; RMC-7977 111.111 nM): 6.712 and 6.771 and 6.171 and 6.63 and 5.929 and 6.341
- Cellular nano-BRET of SOS1 (catalytic domain) binding to KRAS WT (KRAS–SOS1; RMC-7977 333.333 nM): 6.383 and 7.187 and 5.742 and 6.572 and 6.198 and 6.656
- Cellular nano-BRET of SOS1 (catalytic domain) binding to KRAS WT (KRAS–SOS1; RMC-7977 1000.000 nM): 6.907 and 6.939 and 5.652 and 5.948 and 6.113 and 6.236
- Cell proliferation (CellTiter-Glo) ([1]; ASPC1, RMC-7977 1.52 nM): 68.8907 and 77.7752
- Cell proliferation (CellTiter-Glo) ([1]; ASPC1, RMC-7977 4.57 nM): 54.6049 and 56.084
- Cell proliferation (CellTiter-Glo) ([1]; ASPC1, RMC-7977 13.72 nM): 31.4521 and 36.2763
- Cell proliferation (CellTiter-Glo) ([1]; ASPC1, RMC-7977 41.15 nM): 19.3277 and 20.3014
- Cell proliferation (CellTiter-Glo) ([1]; ASPC1, RMC-7977 123.46 nM): 12.8203 and 13.4559
- Cell proliferation (CellTiter-Glo) ([1]; ASPC1, RMC-7977 370.39 nM): 9.7785 and 11.4734
- Cell proliferation (CellTiter-Glo) ([1]; ASPC1, RMC-7977 1111.14 nM): 8.521 and 9.0438
- Cell proliferation (CellTiter-Glo) ([1]; ASPC1, RMC-7977 3333.41 nM): 6.811 and 10.0312
- Cell proliferation (CellTiter-Glo) ([1]; ASPC1, RMC-7977 10000.00 nM): 5.308 and 5.788
- Cell proliferation (CellTiter-Glo) ([1]; CAPAN1, RMC-7977 1.52 nM): 59.9636 and 63.7997
- Cell proliferation (CellTiter-Glo) ([1]; CAPAN1, RMC-7977 4.57 nM): 35.7372 and 42.3141
- Cell proliferation (CellTiter-Glo) ([1]; CAPAN1, RMC-7977 13.72 nM): 18.382 and 18.5053
- Cell proliferation (CellTiter-Glo) ([1]; CAPAN1, RMC-7977 41.15 nM): 11.8827 and 13.681
- Cell proliferation (CellTiter-Glo) ([1]; CAPAN1, RMC-7977 123.46 nM): 8.811 and 11.6796
- Cell proliferation (CellTiter-Glo) ([1]; CAPAN1, RMC-7977 370.39 nM): 5.4975 and 10.0571
- Cell proliferation (CellTiter-Glo) ([1]; CAPAN1, RMC-7977 1111.14 nM): 6.166 and 6.972
- Cell proliferation (CellTiter-Glo) ([1]; CAPAN1, RMC-7977 3333.41 nM): 4.455 and 5.8786
- Concentration-response, normalized signal (replicate wells) ([1]; HCT116, RMC-7977 4.00 nM): 82.5863 and 97.7262 and 86.8037 and 89.4627 and 85.957 and 97.0725 and 88.0274 and 98.1156 and 87.4457 and 99.4211 and 79.8906 and 84.8325
- Concentration-response, normalized signal (replicate wells) ([1]; HCT116, RMC-7977 36.01 nM): 18.5896 and 19.6721 and 20.3034 and 20.9024 and 39.3935 and 41.5603 and 31.7309 and 32.7207 and 34.8483 and 44.0944 and 29.6731 and 29.9889
- Concentration-response, normalized signal (replicate wells) ([1]; HCT116, RMC-7977 324.09 nM): 2.22 and 2.64 and 1.664 and 2.991 and 5.879 and 6.569 and 5.425 and 6.586 and 5.001 and 5.957 and 2.283 and 3.5458
- Concentration-response, normalized signal (replicate wells) ([1]; HCT116, RMC-7977 972.25 nM): 1.618 and 2.167
- Concentration-response, normalized signal (replicate wells) ([1]; cell line heading above the shown rows, RMC-7977 10000.00 nM): 4.998 and 6.7184
- Cellular milliBRET signal between CYPA and small GTPase protein ([2]; RMC-7977 1.524 nM): -0.2719 milliBRET and -0.4231 milliBRET and 0.2605 milliBRET and -0.1984 milliBRET and 0.524 milliBRET and 0.04711 milliBRET
- Cellular milliBRET signal between CYPA and small GTPase protein ([2]; RMC-7977 4.572 nM): -0.5269 milliBRET and -0.1093 milliBRET and -0.06611 milliBRET and -0.1023 milliBRET and 0.1899 milliBRET and 0.4007 milliBRET
- Cellular milliBRET signal between CYPA and small GTPase protein ([2]; RMC-7977 13.717 nM): 0.6404 milliBRET and 0.07312 milliBRET and 0.4941 milliBRET and 0.7558 milliBRET and 0.6549 milliBRET and 1.032 milliBRET
- Cellular milliBRET signal between CYPA and small GTPase protein ([2]; RMC-7977 41.152 nM): 0.4251 milliBRET and 1.3441 milliBRET and 1.494 milliBRET and 1.804 milliBRET and 1.776 milliBRET and 2.155 milliBRET
- Cellular milliBRET signal between CYPA and small GTPase protein ([2]; RMC-7977 123.457 nM): 1.79 milliBRET and 2.3918 milliBRET and 3.205 milliBRET and 3.2803 milliBRET and 3.617 milliBRET and 3.886 milliBRET
- Cellular milliBRET signal between CYPA and small GTPase protein ([2]; RMC-7977 370.370 nM): 4.62 milliBRET and 5.516 milliBRET and 5.967 milliBRET and 6.807 milliBRET and 6.877 milliBRET and 7.887 milliBRET
- Cellular milliBRET signal between CYPA and small GTPase protein ([2]; RMC-7977 1111.111 nM): 5.956 milliBRET and 7.6238 milliBRET and 6.926 milliBRET and 8.351 milliBRET and 7.549 milliBRET and 9.519 milliBRET
- Cellular milliBRET signal between CYPA and small GTPase protein ([3]; RMC-7977 1.524 nM): 0.1742 milliBRET and -0.02549 milliBRET and -0.02476 milliBRET and 0.1125 milliBRET and -0.009573 milliBRET and 0.6001 milliBRET
- Cellular milliBRET signal between CYPA and small GTPase protein ([3]; RMC-7977 4.572 nM): 0.2187 milliBRET and 0.4442 milliBRET and 0.7681 milliBRET and 0.6759 milliBRET and 0.0576 milliBRET and 0.4387 milliBRET
- Cellular milliBRET signal between CYPA and small GTPase protein ([3]; RMC-7977 13.717 nM): 1.192 milliBRET and 1.33 milliBRET and 1.81 milliBRET and 1.499 milliBRET and 1.997 milliBRET and 1.461 milliBRET
- Cellular milliBRET signal between CYPA and small GTPase protein ([3]; RMC-7977 41.152 nM): 3.258 milliBRET and 4.102 milliBRET and 3.883 milliBRET and 4.836 milliBRET and 4.487 milliBRET and 5.493 milliBRET
